The results in this text go back to ChEMBL document CHEMBL1149576, “Convergent synthesis and in vivo inhibitory effect on fat accumulation of (-)-ternatin, a highly N-methylated cyclic peptide” (2007).

Calls of active or inactive are those of the source. No cut-off for these calls is given here.

This experiment concerns 3T3-L1. Briefly: Inhibition of fat accumulation in mouse 3T3L1 adipocytes. The experiment is classed as functional, cell-based.

As for `CC[C@H](C)[C@H]1NC(=O)[C@@H]([C@H](O)C(C)C)NC(=O)[C@@H](C)N(C)C(=O)[C@H](C)N(C)C(=O)[C@H](CC(C)C)NC(=O)[C@H](CC(C)C)N(C)C(=O)[C@H](C)N(C)C1=O`, the outcome was Active.
